Test results: patent US7880007B2, “Bicyclic substituted phenyl piperidine modulators of muscarinic receptors” (Vertex Pharmaceuticals Incorporated, priority 2004, dated 2011)

What was measured:
Format in all cases: cell-based
M1 muscarinic receptor = molecular target: T1, M1 muscarinic receptor (Homo sapiens, UniProt P11229); assay: Functional mobilization of intracellular calcium (FLIPR), M1-CHO cells; conditions: for Emax: 100% efficacy = maximum response obtained with the Carbachol control; for M1 Activity: M1-CHO cells, calcium mobilization (FLIPR)
T1 construct: expressed in transfected cells; host or cells: CHO (M1-CHO)
T1 sequence (P11229 1-460): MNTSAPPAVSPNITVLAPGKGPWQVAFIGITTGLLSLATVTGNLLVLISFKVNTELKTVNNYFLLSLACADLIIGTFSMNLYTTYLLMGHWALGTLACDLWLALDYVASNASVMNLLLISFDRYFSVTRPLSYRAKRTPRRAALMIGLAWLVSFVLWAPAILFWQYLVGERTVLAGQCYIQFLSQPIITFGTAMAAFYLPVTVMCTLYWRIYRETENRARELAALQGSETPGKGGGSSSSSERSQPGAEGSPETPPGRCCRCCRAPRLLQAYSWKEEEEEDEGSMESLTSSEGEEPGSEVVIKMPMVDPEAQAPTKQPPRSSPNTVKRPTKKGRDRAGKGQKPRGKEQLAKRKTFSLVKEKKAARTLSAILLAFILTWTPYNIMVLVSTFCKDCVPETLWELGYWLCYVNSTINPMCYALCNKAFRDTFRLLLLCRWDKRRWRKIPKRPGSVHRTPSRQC
How it was run: (§1)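 CHO cells expressing human M1–M4 receptors loaded with Fluo-3 AM or Calcium 3 dye (1 mM probenecid, pH 7.4); 0.5% DMSO final. Agonist mode: compound added directly; antagonist mode: 15 min pre-incubation or co-application, then carbachol at EC80. Fluorescence read 60 s on FLIPR; efficacy relative to carbachol maximum.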

M2 muscarinic receptor = molecular target: T2, M2 muscarinic receptor (Homo sapiens, UniProt P08172); assay: Functional mobilization of intracellular calcium (FLIPR), M2-CHO cells; conditions: for Emax: 100% efficacy = maximum response obtained with the Carbachol control; for M2 Activity: M2-CHO cells, calcium mobilization (FLIPR)
T2 construct: expressed in transfected cells; host or cells: CHO (M2-CHO)
T2 sequence (P08172 1-466): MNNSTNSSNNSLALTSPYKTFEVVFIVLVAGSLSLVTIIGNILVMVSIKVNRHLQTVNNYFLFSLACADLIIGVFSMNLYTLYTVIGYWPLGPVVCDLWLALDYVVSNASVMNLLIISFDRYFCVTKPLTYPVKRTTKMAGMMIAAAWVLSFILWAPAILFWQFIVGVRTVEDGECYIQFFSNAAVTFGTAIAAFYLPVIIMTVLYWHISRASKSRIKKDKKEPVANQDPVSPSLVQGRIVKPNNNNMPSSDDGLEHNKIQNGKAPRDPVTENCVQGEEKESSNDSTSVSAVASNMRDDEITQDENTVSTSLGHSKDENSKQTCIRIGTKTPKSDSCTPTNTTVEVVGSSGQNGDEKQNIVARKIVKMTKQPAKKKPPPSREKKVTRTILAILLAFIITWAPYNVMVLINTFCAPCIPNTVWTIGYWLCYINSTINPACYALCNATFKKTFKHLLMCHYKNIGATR
How it was run: as §1

M3 muscarinic receptor = molecular target: T3, M3 muscarinic receptor (Homo sapiens, UniProt P20309); assay: Functional mobilization of intracellular calcium (FLIPR), M3-CHO cells; conditions: for Emax: 100% efficacy = maximum response obtained with the Carbachol control; for M3 Activity: M3-CHO cells, calcium mobilization (FLIPR)
T3 construct: expressed in transfected cells; host or cells: CHO (M3-CHO)
T3 sequence (P20309 whole entry): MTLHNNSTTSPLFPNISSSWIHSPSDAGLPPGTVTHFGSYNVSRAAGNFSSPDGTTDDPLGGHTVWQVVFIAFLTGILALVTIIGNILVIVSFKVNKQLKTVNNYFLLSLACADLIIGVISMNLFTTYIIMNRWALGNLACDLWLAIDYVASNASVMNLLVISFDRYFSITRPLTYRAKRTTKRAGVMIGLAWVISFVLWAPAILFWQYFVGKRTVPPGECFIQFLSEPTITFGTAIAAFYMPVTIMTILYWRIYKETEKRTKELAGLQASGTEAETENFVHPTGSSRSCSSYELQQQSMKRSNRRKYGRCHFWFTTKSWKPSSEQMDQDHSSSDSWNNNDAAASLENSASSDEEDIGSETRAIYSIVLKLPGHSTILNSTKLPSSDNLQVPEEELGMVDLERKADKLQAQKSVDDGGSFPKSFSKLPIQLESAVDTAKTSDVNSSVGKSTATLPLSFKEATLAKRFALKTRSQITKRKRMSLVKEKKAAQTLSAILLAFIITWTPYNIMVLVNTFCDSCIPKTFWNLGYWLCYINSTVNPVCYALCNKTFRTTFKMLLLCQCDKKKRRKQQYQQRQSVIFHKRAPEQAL
How it was run: as §1

M4 muscarinic receptor = molecular target: T4, M4 muscarinic receptor (Homo sapiens, UniProt P08173); assay: Functional mobilization of intracellular calcium (FLIPR), M4-CHO cells; conditions: for Emax: 100% efficacy = maximum response obtained with the Carbachol control; for M4 Activity: M4-CHO cells, calcium mobilization (FLIPR)
T4 construct: expressed in transfected cells; host or cells: CHO (M4-CHO)
T4 sequence (P08173 1-479): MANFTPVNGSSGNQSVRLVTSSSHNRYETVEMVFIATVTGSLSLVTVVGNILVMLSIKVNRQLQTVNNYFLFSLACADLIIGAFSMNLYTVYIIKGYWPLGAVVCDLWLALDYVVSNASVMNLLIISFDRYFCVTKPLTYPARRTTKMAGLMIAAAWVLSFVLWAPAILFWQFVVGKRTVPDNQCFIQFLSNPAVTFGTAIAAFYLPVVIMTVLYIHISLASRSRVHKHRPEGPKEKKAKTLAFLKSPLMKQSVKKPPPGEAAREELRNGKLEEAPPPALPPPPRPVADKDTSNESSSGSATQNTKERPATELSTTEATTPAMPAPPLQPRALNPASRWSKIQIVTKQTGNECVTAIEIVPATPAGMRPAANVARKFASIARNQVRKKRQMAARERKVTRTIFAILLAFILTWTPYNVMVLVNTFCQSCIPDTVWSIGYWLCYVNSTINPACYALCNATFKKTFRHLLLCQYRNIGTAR
How it was run: as §1

Compound | Emax (M1 muscarinic receptor) [%] | M1 Activity (M1 muscarinic receptor) | Emax (M2 muscarinic receptor) [%] | M2 Activity (M2 muscarinic receptor) | Emax (M3 muscarinic receptor) [%] | M3 Activity (M3 muscarinic receptor) | Emax (M4 muscarinic receptor) [%] | M4 Activity (M4 muscarinic receptor)
COc1ccc(-c2cccc(F)c2F)cc1C1CCN([C@@H]2C[C@H]3CC[C@H]2C3)CC1 [Compound 318] | < 25 | + (activity was measured to be greater than 5.0 μM) | < 25 | + (activity was measured to be greater than 5.0 μM) | < 25 | + (activity was measured to be greater than 5.0 μM) | 25 to 100 | + (activity was measured to be greater than 5.0 μM)
COc1ccccc1C1CCN(CC2CCCCC2)CC1 [Compound 320] | < 25 | + (activity was measured to be greater than 5.0 μM) | < 25 | + (activity was measured to be greater than 5.0 μM) | < 25 | + (activity was measured to be greater than 5.0 μM) | 25 to 100 | ++ (activity was measured to be from 1.0 μM to 5.0 μM)
COc1ccc(C(C)=O)cc1C1CCN([C@H]2C[C@H]3CC[C@H]2C3)CC1 [Compound 321] | < 25 | + (activity was measured to be greater than 5.0 μM) | < 25 | + (activity was measured to be greater than 5.0 μM) | < 25 | + (activity was measured to be greater than 5.0 μM) | < 25 | + (activity was measured to be greater than 5.0 μM)
CCOC(=O)N1C2CCC1CC(N1CCC(c3cc(OC)cc(F)c3F)CC1)C2 (centres unmarked) [Compound 322] | 25 to 100 | +++ (activity was measured to be less than 1.0 μM) | < 25 | ++ (activity was measured to be from 1.0 μM to 5.0 μM) | < 25 | + (activity was measured to be greater than 5.0 μM) | 25 to 100 | +++ (activity was measured to be less than 1.0 μM)
COc1ccc(-c2ccc(C(=O)Nc3nccs3)cc2)cc1C1CCN(C2CCCCC2)CC1 [Compound 323] | < 25 | + (activity was measured to be greater than 5.0 μM) | < 25 | + (activity was measured to be greater than 5.0 μM) | < 25 | + (activity was measured to be greater than 5.0 μM) | 25 to 100 | ++ (activity was measured to be from 1.0 μM to 5.0 μM)
CCC1(O)CCC(N2CCC(c3cc(Cl)ccc3OC)CC2)CC1 (centres unmarked) [Compound 324] | < 25 | + (activity was measured to be greater than 5.0 μM) | < 25 | + (activity was measured to be greater than 5.0 μM) | < 25 | + (activity was measured to be greater than 5.0 μM) | 25 to 100 | +++ (activity was measured to be less than 1.0 μM)
COc1ccc(C(C)(C)C)cc1C1CCN([C@@H]2C[C@@H]3CC[C@H]2C3)CC1 [Compound 325, 1-((1S,2R,4R)-bicyclo[2.2.1]heptan-2-yl)-4-(5-tert-butyl-2-methoxy-phenyl) piperidine] | 25 to 100 | ++ (activity was measured to be from 1.0 μM to 5.0 μM) | 25 to 100 | + (activity was measured to be greater than 5.0 μM) | 25 to 100 | + (activity was measured to be greater than 5.0 μM) | 25 to 100 | ++ (activity was measured to be from 1.0 μM to 5.0 μM)
COc1ccc(Cl)cc1C1(F)CCN(CC2CC3CCC2C3)CC1 (centres unmarked) [Compound 326] | 25 to 100 | + (activity was measured to be greater than 5.0 μM) | 25 to 100 | + (activity was measured to be greater than 5.0 μM) | < 25 | + (activity was measured to be greater than 5.0 μM) | 25 to 100 | ++ (activity was measured to be from 1.0 μM to 5.0 μM)
CCCC1CCC(N2CCC(F)(c3cc(F)ccc3OC)CC2)CC1 (centres unmarked) [Compound 327] | 25 to 100 | ++ (activity was measured to be from 1.0 μM to 5.0 μM) | 25 to 100 | + (activity was measured to be greater than 5.0 μM) | < 25 | + (activity was measured to be greater than 5.0 μM) | 25 to 100 | ++ (activity was measured to be from 1.0 μM to 5.0 μM)
CNC(=O)c1ccc(-c2ccc(OC)c(C3CCN(C4C[C@H]5CC[C@H]4C5)CC3)c2)cc1Cl (some centres unmarked) [Compound 328] | < 25 | + (activity was measured to be greater than 5.0 μM) | < 25 | + (activity was measured to be greater than 5.0 μM) | < 25 | + (activity was measured to be greater than 5.0 μM) | 25 to 100 | ++ (activity was measured to be from 1.0 μM to 5.0 μM)
Cc1ccc(C)c(C2CCN(CC3CC4C=CC3C4)CC2)c1 (centres unmarked) [Compound 329] | 25 to 100 | + (activity was measured to be greater than 5.0 μM) | < 25 | + (activity was measured to be greater than 5.0 μM) | – | + (activity was measured to be greater than 5.0 μM) | 25 to 100 | ++ (activity was measured to be from 1.0 μM to 5.0 μM)
CCOC(=O)N1C2CCC1CC(N1CCC(c3cc(F)ccc3OC)CC1)C2 (centres unmarked) [Compound 330] | 25 to 100 | +++ (activity was measured to be less than 1.0 μM) | 25 to 100 | +++ (activity was measured to be less than 1.0 μM) | < 25 | + (activity was measured to be greater than 5.0 μM) | 25 to 100 | +++ (activity was measured to be less than 1.0 μM)
COc1ccc(Cl)cc1C1CCN(C2CCC3(CC2)OCCO3)CC1 [Compound 331, 4-(5-chloro-2-methoxyphenyl)-1-(1,4-dioxaspiro[4.5]decan-8-yl)piperidine] | 25 to 100 | + (activity was measured to be greater than 5.0 μM) | < 25 | + (activity was measured to be greater than 5.0 μM) | < 25 | + (activity was measured to be greater than 5.0 μM) | 25 to 100 | +++ (activity was measured to be less than 1.0 μM)
COc1ccc(-c2ccc(S(=O)(=O)N3CCCC3)cc2)cc1C1CCN(C2CCCCC2)CC1 [Compound 332] | 25 to 100 | + (activity was measured to be greater than 5.0 μM) | < 25 | + (activity was measured to be greater than 5.0 μM) | < 25 | + (activity was measured to be greater than 5.0 μM) | 25 to 100 | + (activity was measured to be greater than 5.0 μM)
Cc1c(C2CCN(C3CCOCC3)CC2)cccc1C(F)(F)F [Compound 333] | < 25 | + (activity was measured to be greater than 5.0 μM) | < 25 | + (activity was measured to be greater than 5.0 μM) | < 25 | + (activity was measured to be greater than 5.0 μM) | 25 to 100 | ++ (activity was measured to be from 1.0 μM to 5.0 μM)
